Data reported in US20200129476A1, “PARP Inhibitor in Combination with a Glucocorticoid and/or Ascorbic Acid and/or a Protein Growth Factor for the Treatment of Impaired Wound Healing” (AKRIBES BIOMEDICAL GMBH, priority 2017, published 2020).
Entries after “also recorded” stand apart in the source; their conditions may differ.

Columns and labels:
[1] = system: primary human dermal fibroblasts (HDF); assay: Primary human dermal fibroblast (HDF) proliferation assay (2D), with or without wound exudate; type: cell-based; conditions: for HDF proliferation, PARP inhibitor alone: talazoparib 1 μM
Method: (§1) Primary human dermal fibroblasts (HDF) were purchased from CELLnTEC, Bern. They were routinely grown in Dulbecco's modified Eagle's medium (DMEM) containing 10% FCS, 2 mM glutamine, and 100 U/ml penicillin/100 μg/ml streptomycin. Media, antibiotics, and glutamine were bought from Lonza. The cells were used at passage 5-15. Cells were trypsinized and seeded at 5000 cells/well in 200 μl into the inner wells of 96-well plates. The outer wells were loaded with sterile water. The cells were allowed to adhere overnight and then incubated for 72 hours at 37° C. under the following conditions: graded compound concentrations or 20 ng/ml PDGF-BB (Tonbo Biosciences) in the absence or presence of different dilutions of sterile-filtered WE in medium. For control samples, 200p1 medium was added instead of specific stimuli. Alternatively, the cells were seeded into 384-well plates at 2500 cells/well directly together with test compounds or growth factors and WE or medium in a total volume of […].
(§2) At the end of the 72-hour incubation period, supernatants were removed for the determination of IL-1ß, and the cells were fixed with 4% paraformaldehyde (Morphisto) for 15 minutes at room temperature and washed 3 times with PBS. A control plate was fixed after the overnight adherence of the cells (day 1) to determine the starting cell number.
Total cellular protein was determined as a measure of cell number by staining the fixed cells with sulforhodamine B (SRB, Sigma). A 0.4% SRB solution in 1% acetic acid was added to the wells for 30 minutes. The wells were then washed with 1 acetic acid until the wash solution remained colorless. After drying, the dye was eluted with 10 mM Tris.HCl, pH8.5, and absorbance was measured either at 550 or 492 nm for lower and higher cell densities, respectively. The average absorbance of the sample representing the day 1 starting cell number (for 96-well plates) was subtracted from the absorbance values of the WE-treated cells.
All experiments were carried out in triplicate for each sample and concentration, and means±standard deviation (SD) were used for the evaluation of the experiment. Results are expressed as percentage of control values for unstimulated cells.
(§3) Low molecular weight compounds (see list in Table 1) were dissolved in DMSO (Bioreagent for cell culture, Sigma) at 10 mM or 100 mM and diluted at least 1:1000 in medium for cellular assays (final DMSO concentration ≤0.1%).
(§4) Cells were incubated with compounds for 72 hours in proliferation assays and up to 8 days for FDM assay (refreshed after 4 days). When compounds were tested for their effect on WE stimulation, the incubation of cells with compounds was started and ended simultaneously with WE-incubation.

cells = assay: Titration to reveal potential toxic effects on cells; type: cell-based; conditions: titrated on cells
Method: Mifepristone, a glucocorticoid and progesterone receptor antagonist, was titrated to reveal potential toxic effects on cells and then used at the well tolerated concentration of 1 μM to counteract glucocorticoid- and progesterone-type compounds (dexamethasone, prednisolone, medroxyprogesterone, etc.). Protein growth factors (see list in Table 1) were dissolved according to the manufacturers' recommendations and used at final concentrations ranging from 0.02 to 1000 ng/ml.

[2] = system: primary human dermal fibroblasts (HDF); assay: Fibroblast-derived matrix (FDM) formation assay (3D), with or without wound exudate; type: cell-based; conditions: for fibroblast-derived matrix (FDM) formation: presence of WE #78 (FIG. 9)
Method: HDF cells were seeded at 5000 cells/well on day −3 into 96-well tissue culture plates (1250 cells/well for 384-well plates), which had been pre-coated for 1 hour at 37° C. with 0.2% gelatin solution (Sigma). When the cells reached confluence (=day 0), a matrix promoting supplement (vitamin C: 2-phospho-L-ascorbic acid trisodium salt, 100 μg/ml; Sigma) was added together with test samples containing PDGF-BB, TGF-ß1 or graded concentrations of compounds −/+WE as described for the HDF proliferation assay. After 4 days, medium was replaced by fresh vitamin C- and stimulus- as well as compound-containing medium, maintaining the conditions initiated on day 0. TGF-ß1 and PDGF-BB were included as positive controls to promote FDM formation and cell growth, respectively. After a total incubation time of 8 days, FDM production was measured in fixed cultures via SRB staining and evaluated as described above. In some cases, the experiment was stopped and evaluated already on day 4.
as §3, with “≤0.1%). Compounds were typically tested in half-logarithmic dilution series (1:3.33), starting at 10 μM or 100 μM as the highest compound concentration.” for “≤0.1%).”
as §4

IL-1ß = IL-1ß secretion by HDF in the presence of wound exudate (ELISA); type: cell-based, human; conditions: FIG. 22; WE #43 and #78 used with veliparib
Method: as §1, §2
IL-1ß levels were determined with a commercial ELISA kit. The amount of IL-1ß contained in the wound exudate added to the cells was subtracted from the total IL-ß in the supernatants in order to determine the cytokine secreted by the cells.

IL-1α = assay: Fibroblast-macrophage coculture with wound exudate: IL-1α; type: cell-based, human; conditions: WE #78; veliparib 10 μM, talazoparib 0.1 μM
Method: CD14^+ monocytes, isolated from PBMC of healthy donors by magnetic bead separation were incubated either alone or in the presence of primary human dermal fibroblasts (CelINTec) or fibroblast-derived matrices (FDM). FDM had been generated from primary human dermal fibroblasts by a 3-week incubation with the growth supplements vitamin C or insulin and EGF (vitamin C: 2-phospho-L-ascorbic acid trisodium salt, 100 μg/ml; human EGF, 5 ng/ml; human insulin, 5 μg/ml). Alternatively, fibroblast monolayer cultures can be used as well. After 4 days to a week to allow for macrophage differentiation in the presence or absence of M-CSF (25 ng/ml), the cultures were stimulated overnight with graded concentrations of test compounds in the absence or presence of various dilutions of sterile-filtered WE. IFN-g (50 ng/ml), LPS (100 ng/ml) and IL-4 (25 ng/ml) or combinations thereof served as controls for M1 and M2 macrophage induction. For negative control samples, medium was added instead of specific stimuli. WE were added to the culture medium for overnight stimulation at dilutions ranging from 1:25 to 1:100.
Supernatants were harvested and frozen for cytokine determination by ELISA, and cells were harvested and subjected to FACS analysis, gating on the monocyte population. Geometric means or mean fluorescence intensities (MFI) were used to quantify surface marker expression. […]

| Compound | reversal of glucocorticoid effects on HDF proliferation ([1]; mifepristone as antagonist, WE present) | well tolerated concentration (cells) [µM] | cell proliferation under wound exudate-induced inhibition ([1]; FIG. 22, WE #43 and #78 used with veliparib) | HDF proliferation, PARP inhibitor plus PDGF ([1]; PARP inhibitor dose series + PDGF 20 ng/ml, WE #78 (FIG. 18)) | fibroblast (HDF) proliferation ([1]; presence of WE #43) | fibroblast (HDF) proliferation ([1]; presence of WE #78 (diabetic patient)) | HDF proliferation ([1]; talazoparib 0.3 μM, WE #78 (FIG. 19)) | HDF proliferation, PARP inhibitor plus PDGF ([1]; veliparib 10 μM, talazoparib 1 μM + PDGF 20 ng/ml, WE #78 (FIG. 17B)) | HDF proliferation, PARP inhibitor alone ([1]; veliparib 10 μM, WE #78 (FIG. 17B)) | HDF proliferation, PARP inhibitor alone ([1]; veliparib 10 μM, absence of WE (FIG. 17A)) | fibroblast-derived matrix (FDM) formation [2] | fibroblast-derived matrix (FDM) formation ([2]; listed as Talazoparib) | fibroblast-derived matrix (FDM/ECM) formation ([2]; presence of wound exudate, WE not specified (FIG. 6: microscopy)) | IL-1ß secretion induced by wound exudate (IL-1ß) | IL-1α induced by wound exudate (IL-1α) |
| --- | --- | --- | --- | --- | --- | --- | --- | --- | --- | --- | --- | --- | --- | --- | --- |
| CC#C[C@]1(O)CC[C@H]2[C@@H]3CCC4=CC(=O)CCC4=C3[C@@H](c3ccc(N(C)C)cc3)C[C@@]21C [mifepristone, Mifepristone] | reversible | 1 | – | – | – | – | – | – | – | – | – | – | – | – | – |
| Cn1ncnc1[C@H]1c2n[nH]c(=O)c3cc(F)cc(c23)N[C@@H]1c1ccc(F)cc1 [talazoparib] | – | – | enhanced cell proliferation | even further enhanced by the addition of PDGF | strongly beneficial effects | strongly beneficial effects; also recorded: dose-dependent increase of HDF proliferation | rescues the cells from the inhibitory effect of the WE; also recorded: rescued the cells from the inhibitory effect of the wound exudate | additively or synergistically enhanced by PDGF | induce proliferation | no or even an inhibitory effect on fibroblasts on their own | strong positive effect | most active of the PARP inhibitors tested in 3D culture | “cleaned up” WE-induced fibroblast matrix inhibition | reducing IL-1ß secretion | reduced |
